# Data: US20070202079A1, “Therapeutic compositions and methods useful in modulating protein tyrosine phosphatases” (priority 2006, published 2007)
# “And” between values parts separate entries of the source, which are not always exact repeats. Equal entries are not always repeated. “Also recorded” adds a separate entry of the source.
# Experiments:
# NB4 cells [1] = assay: NB4 differentiation (NBT reduction, CD11b); assay type: cell-based, human
# Description: (§1) Differentiation of AML cell lines was assessed by their ability to produce superoxide as measured by reduction of NBT to formazan and by analysis of expression of CD11b surface marker by flow cytometry. For NBT reduction, each cell suspension was mixed with an equal volume of solution containing 1 mg/ml of NBT (Sigma) and 2.5 μg/ml of TPA for 30 minutes at 37° C. After incubation, cells containing the purple formazan deposits and cells devoid of NBT-reducing activity (white cells) in each sample were determined by counting 200 cells under microscope. Data is expressed as a percentage based on the following ratio: purple cells/purple+white cells. For analysis of cell surface antigens, cells were exposed to phycoerythrin (PE)-conjugated murine anti-human CD11b (DAKO Corp., Carpinteria, Calif.). Analysis of fluorescence was performed on a FACScan flow cytometer (Beckton Dickinson, Mountain View, Calif.).
# NB4 cells [2] = assay: NB4 growth, cell cycle and Annexin V; assay type: cell-based, human; settings: sodium stibogluconate 250 μg/ml or ATRA 1 μM, 3 days
# Description: The NB4 cell line (Lanotte et al., Blood 77, 1080 (1991)) was a gift from Dr. Dan Lindner of the Cleveland Clinic Foundation. […] and U937 cell lines were purchased from American Type Culture Collection (Rockville, Md.). These human […] cell lines were maintained in RPMI 1640 medium supplemented with 10% fetal calf serum (FCS). For cell proliferation assays, cells were cultured at 37° C. in 10% FCS medium containing various amounts of sodium stibogluconate for 6 days. The cell numbers in the cultures were determined by an MTT assay as described previously in Mosmann, J. Immunol. Methods 65, 55 (1983).
# The cell cycle was analyzed by flow cytometry after 3 days of culture of NB4 cells in the absence or presence of sodium stibogluconate (250 μg/ml) or ATRA (1 μM). Briefly, the cells were fixed in cold ethanol and incubated for 30 minutes at 4° C. in the dark with a solution of […] propidium iodide, 1 mg/ml RNase and 0.1% NP-40. Analysis was performed immediately after staining using the CELLFIT program (Becton Dickinson, Mountain View, Calif.).
# Annexin V staining of exposed membrane phospholipid phosphatidylserine (PS) was done using the Annexin V assay kit (Pharmingen, San Diego, Calif.). Briefly, NB4 cells were cultured in the 10% FCS RPMI 1640 medium in the absence or presence of sodium stibogluconate (250 μg/ml) or ATRA (1 μM) for 3 days. Cells were then washed in PBS twice and stained in binding buffer (10 mM Hepes, pH 7.4; 140 mM NaCl; 2.5 mM CaCl2) containing Annexin V-FITC and propidium iodide for 15 min. The reaction was stopped by adding 10 volumes of binding buffer and analyzed by FACS (Becton Dickinson Facsvantage).
# HL-60 cells = assay: HL-60 differentiation (NBT reduction); assay type: cell-based, human; settings: day 6
# Description: as §1
# U937 cells = assay: U937 differentiation (NBT reduction); assay type: cell-based, human; settings: day 6
# Description: as §1
# SHP-1 = target: T1, SHP-1 (Mus musculus, UniProt P29351); assay: in vitro PTPase assay, GST/SHP-1; assay type: biochemical; settings: 1-1,000 μg/ml
# T1 construct: made in house
# Description: In vitro PTPase activities were measured using the commercial protein tyrosine phosphatase assay kit (Upstate Biotechnology, Inc. (“UBI”)) following established procedure known to one of skill in the art. […] Briefly, 0.01 μg of GST/PTPase fusion proteins was incubated in 50 μl of Tris buffer (10 mM Tris, pH 7.4) containing different concentrations of inhibitors or chemicals (0-1,000 μg/ml) at 22° C. for 10 minutes, followed by addition of 0.2 mM of the phosphotyrosine peptide and incubation at 22° […] 100 μl of Malachite Green solution was added and incubated for 5 minutes, and the absorbance at 660 nm was measured after 5 minutes.
# To assess the reversibility of inhibition of SHP-1 by PTPase inhibitors, GST/SHP-1 fusion protein bound on glutathione beads were pre-incubated in cold Tris buffer or Tris buffer containing the PTPase inhibitors at 4° C. for 30 minutes. The beads were then either subjected to in vitro PTPase assays or washed 3 times in Tris buffer then subjected to in vitro PTPase assays.
# Briefly, individual PTPases (0.1 μg/reaction) in 50 μL of PTPase buffer (50 mM Tris, pH 7.4) were incubated at 22° C. for 10 minutes or as indicated in the absence or presence of inhibitory compounds. Substrates (0.2 mM phosphotyrosine peptide) were then added and allowed to react at 22° C. for 18 hrs. PTPase activity of individual reactions was measured by adding 100 μL of malachite green solution (UBI) and then quantifying the amounts of free phosphate cleaved by the PTPase from the peptide substrate by spectrometry (OD660 nm). […] Relative PTPase activities were calculated based on the formula: (PTPase activity in the presence of an inhibitory compound/PTPase activity in the absence of the compound)× 100%. To assess the reversibility of PTPase inhibition, GST fusion proteins of the PTPases bound on glutathione beads (Pharmacia) were pre-incubated with cold Tris buffer (50 mM Tris, pH 7.0) or Tris buffer containing the inhibitor at 4° C. for 30 minutes. The beads were then washed three times in cold Tris buffer or not washed prior to subjecting to in vitro PTPase assays.
# PTP1B = target: T2, PTP1B (Homo sapiens, UniProt P18031); assay: in vitro PTPase assay, GST/PTP1B; assay type: biochemical; settings: 1-1,000 μg/ml
# T2 construct: purchased Upstate Biotechnology Inc. (Lake Placid, N.Y.)
# Description: In vitro PTPase activities were measured using the commercial protein tyrosine phosphatase assay kit (Upstate Biotechnology, Inc. (“UBI”)) following established procedure known to one of skill in the art. This assay measures the in vitro dephosphorylation of a synthetic phosphotyrosine peptide of the sequence Arg-Arg-Leu-Ile-Glu-Asp-Ala-Gle-T- -yr-Ala-Ala-Arg-Gly, wherein the tyrosine is phosphorylated (SEQ ID NO: 3). Briefly, 0.01 μg of GST/PTPase fusion proteins was incubated in 50 μl of Tris buffer (10 mM Tris, pH 7.4) containing different concentrations of inhibitors or chemicals (0-1,000 μg/ml) at 22° C. for 10 minutes, followed by addition of 0.2 mM of the phosphotyrosine peptide and incubation at 22° C. for 18 hours. 100 μl of Malachite Green solution was added and incubated for 5 minutes, and the absorbance at 660 nm was measured after 5 minutes.
# In vitro PTPase assays were used to determine the effects of levamisole (Sigma), pentamidine (American Pharmaceutical Partners, Inc.), and ketoconazole (Sigma) on recombinant PTPases, following established procedures (Pathak et al., J. Immunol. 167, 3391 (2001); Pathak et al., Leukemia 16, 2285 (2002), Yi et al., J. Immunol. 169, 5978 (2002)) using a synthetic phosphotyrosine peptide or DiFMUP as the substrate as detailed above in section I.A.2.
# [3] = tested on: Jak2/Stat5 tyrosine phosphorylation in Baf3 cells; assay: cellular protein tyrosine phosphorylation in Baf3 cells, Western blotting; assay type: cell-based, murine
# Description: For induction of cellular protein phosphorylation by sodium stibogluconate or pervanadate, Baf3 cells were incubated in 0.1% FCS-RPMI 1640 medium at 37° C. for 16 hours. The cells were then washed twice in RPMI 1640 medium and incubated with sodium stibogluconate or pervanandate (0.1 mM) for various times prior to termination by lysing cells in cold lysis buffer (50 mM Tris, pH 7.4; 150 mM NaCl; 0.2 mM Na3VO4; 20 mm NaF; 1% Nonidet P-40; 2 mM PMSF; 20 μg/ml of Aprotinin and 1 mM of sodium molybdic acid). To determine the effect of sodium stibogluconate or potassium antimonyl tartrate on IL-3-induced Jak/Stat phosphorylation, Baf3 cells were deprived of the growth factor for 16 hours in 0.1% FCS RPMI 1640 medium and then incubated with or without sodium stibogluconate or potassium antimonyl tartrate for 10 minutes. IL-3 was next added to the cell suspension and incubated for various times. The Cells were then harvested and lysed in cold lysis buffer at 4° C. for 45 minutes. Total cell lysates (TCL) were separated in SDS-PAGE gels, blotted onto nitrocellulose membrane (Schleicher & Schuell), probed with specific antibodies and detected using an enhanced chemiluminescence kit (ECL, Amersham, Arlington Heights, Ill.).
# Baf3 cells = assay: Baf3 cell proliferation assay; assay type: cell-based, murine
# Description: The murine hematopoietic cell line Baf3 was maintained in RPMI 1640 medium supplemented with 10% fetal calf serum (FCS) and murine IL-3 (20 units/ml) as described previously in Damen et al., J. Biol. Chem. 270, 23402 (1995). Human myeloid cell line TF-1 was maintained in RPMI 1640 supplemented with 10% FCS and 40 ng/ml of recombinant human GM-CSF as described previously in Thomassen et al., Clin. Immunol. 95, 85 (2000). For cell proliferation assays, cells were washed in 10% FCS medium twice, resuspended in 10% FCS medium, incubated at 37° C. for 16 hours, and then cultured at 37° C. in 10% FCS medium containing various amounts of cytokines, sodium stibogluconate, or potassium antimonyl tartrate for 3-6 days as indicated. The cell numbers in proliferation assays were determined by an MTT assay or by microscopic cell counting as indicated.
# Renca tumors = Renca tumors in Balb/c mice; assay type: in vivo; settings: two weeks; SSG 12 mg/daily i.m., i.p.
# Description: Balb/c and athymic nude Balb/c mice (10 weeks old, female, Taconic Farms, Germantown, N.Y.) were inoculated (s.c.) at the flanks with Renca cells (10^6 cells/site). Four days post-inoculation, the mice were subject to no treatment (Control) or treatment with IL-2 ([…]/daily for 5 days, i.p.), SSG (12 mg/daily, i.m. at hip regions) or the combination of the two agents for two weeks. […] The dose of SSG was similar to the effective daily dose of the drug for the treatment of murine leishmaniasis (Murray, H. W., J. D. Berman, and S. D. Wright. 1988. Immunochemotherapy for intracellular Leishmania donovani infection: gamma interferon plus pentavalent antimony. J Infect Dis 157:973). Tumor volume was measured during the study period and calculated using the formula for a prolate spheroid (V=4/3×a2b) (Lindner, D. J., E. C. Borden, and D. V. Kalvakolanu. 1997. Synergistic antitumor effects of a combination of interferons and retinoic acid on human tumor cells in vitro and in vivo. Clin Cancer Res 3:931). Student's t test was used for assessing the significance of tumor volume differences among differential treatment groups. Mouse viability (daily) and body weights (weekly) were also recorded during the study period. At the end of the study, Renca tumors and major internal organs (heart, kidney, liver, lung and spleen) were harvested for histology and immunohistochemistry analysis.
# [4] = tested on: tumor-infiltrating and spleen immune cells (F4/80+, CD4+, CD8+); assay: immunohistochemistry of Renca tumors and spleen; assay type: in vivo, Balb/c mice; settings: Renca tumors, end of treatment
# Description: Major internal organs and Renca tumors harvested from mice were fixed in 10% formalin or snap frozen in liquid nitrogen. H & E-stained tissue sections of the fixed samples were prepared and evaluated by microscopy as described previously (Yi, T., M. K. Pathak, D. J. Lindner, M. E. Ketterer, C. Farver, and E. C. Borden. 2002. Anticancer activity of sodium stibogluconate in synergy with IFNs. J Immunol 169:5978). Preparation of frozen tissue sections and immunohistochemistry were performed following established procedures (Joliat, M. J., P. A. Lang, B. L. Lyons, L. Burzenski, M. A. Lynes, T. Yi, J. P. Sundberg, and L. D. Shultz. 2002. Absence of CD5 dramatically reduces progression of pulmonary inflammatory lesions in SHP-1 protein-tyrosine phosphatase-deficient ‘viable motheaten’ mice. J Autoimmun 18:105). The antibodies used for immunohistochemistry were anti-CD4 (rat mAb, clone GK1.5, BD Biosciences, Franklin Lakes, N.J.), anti-CD8 (rat mAb, clone 53-6.7.5, BD Biosciences, Franklin Lakes, N.J.), anti-F4/80 (rat mAb, clone A3-1, Serotec, Oxford, UK) and anti-Asialo GM1 (rabbit polyclonal, Cedarlane, Hornby, Canada). […] Tissue sections of 2 mice/group were evaluated. The number of immune cells was semi-quantified based on the following scheme: […], 0-1 positive cells/40×field; +, 2-5 positive cells/40×field; ++, 6-10 positive cells/40×field, etc.
# [5] = sodium stibogluconate 400 μg/ml, GM-CSF 25 ng/ml, ATRA
# T1 sequence (P29351 whole entry): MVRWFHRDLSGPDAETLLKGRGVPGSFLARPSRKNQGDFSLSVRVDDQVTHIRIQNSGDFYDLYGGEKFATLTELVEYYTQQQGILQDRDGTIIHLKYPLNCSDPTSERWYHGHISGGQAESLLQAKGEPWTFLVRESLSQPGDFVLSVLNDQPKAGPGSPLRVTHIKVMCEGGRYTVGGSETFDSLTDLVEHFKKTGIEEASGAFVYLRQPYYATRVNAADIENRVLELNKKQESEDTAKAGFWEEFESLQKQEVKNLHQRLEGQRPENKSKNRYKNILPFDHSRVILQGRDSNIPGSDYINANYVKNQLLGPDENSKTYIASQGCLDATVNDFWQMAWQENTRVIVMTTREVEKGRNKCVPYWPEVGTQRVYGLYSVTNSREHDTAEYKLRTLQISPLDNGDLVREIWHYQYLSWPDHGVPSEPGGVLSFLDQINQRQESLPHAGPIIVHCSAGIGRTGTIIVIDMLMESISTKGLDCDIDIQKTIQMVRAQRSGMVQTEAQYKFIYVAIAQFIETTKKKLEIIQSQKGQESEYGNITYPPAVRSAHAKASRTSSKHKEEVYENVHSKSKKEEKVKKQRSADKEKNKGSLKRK
# T2 sequence (P18031 whole entry, species assumed): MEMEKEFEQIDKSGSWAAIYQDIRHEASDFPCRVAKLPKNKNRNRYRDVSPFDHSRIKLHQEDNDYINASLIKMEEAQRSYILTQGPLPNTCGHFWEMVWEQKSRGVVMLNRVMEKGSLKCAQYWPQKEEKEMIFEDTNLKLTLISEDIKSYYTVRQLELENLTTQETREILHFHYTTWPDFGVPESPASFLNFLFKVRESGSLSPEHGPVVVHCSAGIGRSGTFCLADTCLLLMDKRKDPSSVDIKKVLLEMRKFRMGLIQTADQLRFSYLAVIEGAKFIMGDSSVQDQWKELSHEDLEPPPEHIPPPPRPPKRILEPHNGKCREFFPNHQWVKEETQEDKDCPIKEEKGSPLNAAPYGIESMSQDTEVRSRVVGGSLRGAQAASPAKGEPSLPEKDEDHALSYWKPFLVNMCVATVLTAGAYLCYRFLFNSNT
compound,measurement,setting,value
"CC1=C(/C=C/C(C)=C/C=C/C(C)=C/C(=O)O)C(C)(C)CCC1 [ATRA, All-trans-retinoic acid]",NB4 differentiation by short exposure versus long term exposure,NB4 cells [1]; ATRA,modest
same,cell cycle of NB4 cells,NB4 cells [2],arrested at GI phase
same,NBT-positive (differentiated) HL-60 cells,HL-60 cells; [5],90%
same,NBT-positive (differentiated) U937 cells,U937 cells; [5],72% and 73%
O.O.O.O=C([O-])[C@H]([O-])[C@@H]([O-])C(=O)[O-].O=C([O-])[C@H]([O-])[C@@H]([O-])C(=O)[O-].[K+].[K+].[Sb+3].[Sb+3] [potassium antimonyl tartrate],inhibition of SHP-1,SHP-1,no detectable inhibition
same,inhibition of PTP1B,PTP1B,no detectable inhibition
same,IL-3-induced Stat5 phosphorylation,[3],failed to enhance IL-3-induced Stat5 phosphorylation
same,IL-3-induced proliferation of Baf3 cells,Baf3 cells,failed to enhance
same,toxicity against Baf3 cells,Baf3 cells,marked toxicity
GM-CSF: recombinant human granulocyte/macrophage colony stimulating factor,effect on NB-4 cell differentiation,NB4 cells [1]; GM-CSF alone,no detectable effect
same,maximal increase of NBT-positive HL-60 cells,HL-60 cells; GM-CSF alone 25 ng/ml,8-10%
same,maximal increase of NBT-positive U937 cells,U937 cells; GM-CSF alone 25 ng/ml,8-10%
"IL-2: recombinant IL-2 (Proleukin, Chiron)",Renca tumor growth inhibition,Renca tumors,little effects; also recorded: failed to inhibit Renca tumor growth
same,increase of tumor-infiltrating Mφ (F4/80+),[4],comparable levels
